Measurements taken from paper PMC3193528, “Isothermal Titration Calorimetric Studies on the Interaction of the Major Bovine Seminal Plasma Protein, PDC-109 with Phospholipid Membranes” (PLoS ONE, 2011).

Legend:
[1] = molecular target: T1, PDC-109 (Bos taurus, UniProt P02784); experiment: isothermal titration calorimetry, one set of sites model; assay type: binding; conditions: read-out: K a×10^-5 (M^-1) (converted)
T1 construct: native, purified from bull seminal plasma; 109 residues, 23-residue N-terminal stretch plus two Fn-II domains; mixture of glycoforms BSP-A1 and BSP-A2; polydisperse aggregate in solution
T1 sequence (P02784 26-134): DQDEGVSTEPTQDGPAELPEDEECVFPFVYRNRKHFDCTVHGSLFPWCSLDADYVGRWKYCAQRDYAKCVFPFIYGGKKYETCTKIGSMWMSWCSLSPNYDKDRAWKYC
Text: isothermal titration calorimetry, one set of sites model on PDC-109

[2] = molecular target: T1, PDC-109; experiment: isothermal titration calorimetry, two sets of sites model; assay type: binding; conditions: 25 °C; stronger site of two-site fit (n = 0.9), assigned to micelles; acyl chain of lipid not given; read-out: K a (converted)

Compound | Kd [1] | Kd [2]
CCCCCCCCCCCCCC(=O)OC[C@H](COP(=O)([O-])OCC[N+](C)(C)C)OC(=O)CCCCCCCCCCCCC [DMPC] | 2.44 µM | –
CCCCCCCCCCCCCCCC(=O)OC[C@H](COP(=O)([O-])OCC[N+](C)(C)C)OC(=O)CCCCCCCCCCCCCCC [DPPC] | 7.69 µM | –
Lyso-PC | – | 1.43 µM
CCCCCCCCCCCCCC(=O)OC[C@H](COP(=O)(O)OCC(O)CO)OC(=O)CCCCCCCCCCCCC (stereo partly shown) [DMPG] | 38.5 µM | –
